Test results reported in ChEMBL document CHEMBL1201861, “Genomics of Drug Sensitity in Cancer screening data, Wellcome Trust Sanger Institute”.

Key:
MRK-nu-1 = assay: cells; format: functional, cell-based, Homo sapiens; details: Homo sapiens, MRK-nu-1;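 note: cell viability assay measuring growth suppression of human MRK-nu-1 cells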
Description: SANGER: Inhibition of human MRK-nu-1 cell growth in a cell viability assay.

NCI-H128 = assay: SANGER: Inhibition of human NCI-H128 cell growth in a cell viability assay.; format: functional, cell-based
CHP-126 = assay: cells; format: functional, cell-based, Homo sapiens; details: Homo sapiens, CHP-126
Description: SANGER: Inhibition of human CHP-126 cell growth in a cell viability assay.

EB2 = assay: cells; format: functional, cell-based, Homo sapiens; details: Homo sapiens, EB2;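 note: growth inhibition of EB2 cells, read out with a cell viability assay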
Description: SANGER: Inhibition of human EB2 cell growth in a cell viability assay.

EHEB = assay: cells; format: functional, cell-based, Homo sapiens; details: Homo sapiens, EHEB;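 note: growth inhibition of human EHEB cells, read out with a cell viability assay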
Description: SANGER: Inhibition of human EHEB cell growth in a cell viability assay.

BC1 cell line = assay: SANGER: Inhibition of human BC-1 cell growth in a cell viability assay.; format: functional, cell-based; details: Homo sapiens, BC1
NCI-H322M = assay: cells; format: functional, cell-based, Homo sapiens; details: Homo sapiens, NCI-H322M;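 note: cell viability assay measuring inhibition of growth of human NCI-H322M cells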
Description: SANGER: Inhibition of human NCI-H322M cell growth in a cell viability assay.

KARPAS-422 = assay: cells; format: functional, cell-based, Homo sapiens; details: Homo sapiens, KARPAS-422
Description: SANGER: Inhibition of human KARPAS-422 cell growth in a cell viability assay.

EB-3 = assay: cells; format: functional, cell-based, Homo sapiens; details: Homo sapiens, EB-3;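 note: human EB-3 cells, growth inhibition read out via a cell viability assay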
Description: SANGER: Inhibition of human EB-3 cell growth in a cell viability assay.

SKM-1 = assay: SANGER: Inhibition of human SKM-1 cell growth in a cell viability assay.; format: functional, cell-based
CAL-148 = assay: cells; format: functional, cell-based, Homo sapiens; details: Homo sapiens, CAL-148
Description: SANGER: Inhibition of human CAL-148 cell growth in a cell viability assay.

COR-L279 = assay: SANGER: Inhibition of human COR-L279 cell growth in a cell viability assay.; format: functional, cell-based; details: Homo sapiens, COR-L279
TALL-1 = assay: cells; format: functional, cell-based, Homo sapiens; details: Homo sapiens, TALL-1;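 note: growth inhibition of cultured human TALL-1 cells, read out by a cell viability assay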
Description: SANGER: Inhibition of human TALL-1 cell growth in a cell viability assay.

769-P = assay: cells; format: functional, cell-based, Homo sapiens; details: Homo sapiens, 769-P
Description: SANGER: Inhibition of human 769-P cell growth in a cell viability assay.

P12-Ichikawa = assay: cells; format: functional, cell-based, Homo sapiens; details: Homo sapiens, P12-Ichikawa
FaDu = assay: cells; format: functional, cell-based, Homo sapiens; details: Homo sapiens, FaDu;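 note: cell viability readout of growth inhibition in FaDu cells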
Description: SANGER: Inhibition of human FADU cell growth in a cell viability assay.

NBsusSR = assay: cells; format: functional, cell-based, Homo sapiens; details: Homo sapiens, NBsusSR;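 note: growth inhibition of the human cell line, read out with a cell viability assay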
Description: SANGER: Inhibition of human NBsusSR cell growth in a cell viability assay.

CWR22R = assay: cells; format: functional, cell-based, Homo sapiens; details: Homo sapiens, 22Rv1;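 note: growth inhibition of 22Rv1 cells, read out with a cell viability assay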
Description: SANGER: Inhibition of human 22RV1 cell growth in a cell viability assay.

SK-N-AS = assay: cells; format: functional, cell-based, Homo sapiens; details: Homo sapiens, SK-N-AS;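 note: growth inhibition of human SK-N-AS cells, measured with a cell viability assay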
Description: SANGER: Inhibition of human SK-N-AS cell growth in a cell viability assay.

HCT-116 = assay: cells; format: functional, cell-based, Homo sapiens; details: Homo sapiens, HCT-116
Description: SANGER: Inhibition of human HCT-116 cell growth in a cell viability assay.

SN12C = assay: cells; format: functional, cell-based, Homo sapiens; details: Homo sapiens, SN12C;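 note: growth inhibition of human SN12C cells, measured by a cell viability assay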
Description: SANGER: Inhibition of human SN12C cell growth in a cell viability assay.

TI-73 = assay: cells; format: functional, cell-based, Homo sapiens; details: Homo sapiens, TI-73;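 note: cell viability assay measuring how much compounds suppress growth of the cultured cell line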
Description: SANGER: Inhibition of human TI-73 cell growth in a cell viability assay.

BFTC-909 = assay: cells; format: functional, cell-based, Homo sapiens; details: Homo sapiens, BFTC-909
Description: SANGER: Inhibition of human BFTC-909 cell growth in a cell viability assay.

MDA-MB-157 = assay: cells; format: functional, cell-based, Homo sapiens; details: Homo sapiens, MDA-MB-157
Description: SANGER: Inhibition of human MDA-MB-157 cell growth in a cell viability assay.

T47D = assay: cells; format: functional, cell-based, Homo sapiens; details: Homo sapiens, T47D;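 note: growth inhibition of human T47D cells, measured with a cell viability assay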
Description: SANGER: Inhibition of human T47D cell growth in a cell viability assay.

HMV-2 cell line = assay: cells; format: functional, cell-based, Homo sapiens; details: Homo sapiens, HMV-2;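 note: growth inhibition of HMV-II cells, read out with a cell viability assay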
Description: SANGER: Inhibition of human HMV-II cell growth in a cell viability assay.

COR-L105 = assay: cells; format: functional, cell-based, Homo sapiens; details: Homo sapiens, COR-L105
Description: SANGER: Inhibition of human COR-L105 cell growth in a cell viability assay.

HSC-2 = assay: cells; format: functional, cell-based, Homo sapiens; details: Homo sapiens, HSC-2;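 note: growth inhibition of human HSC-2 cells, read out by a cell viability assay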
Description: SANGER: Inhibition of human HSC-2 cell growth in a cell viability assay.

8505C = assay: cells; format: functional, cell-based, Homo sapiens; details: Homo sapiens, 8505C
Description: SANGER: Inhibition of human 8505C cell growth in a cell viability assay.

NCI-H630 = assay: cells; format: functional, cell-based, Homo sapiens; details: Homo sapiens, NCI-H630;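 note: growth inhibition of NCI-H630 cells, read out with a cell viability assay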
Description: SANGER: Inhibition of human NCI-H630 cell growth in a cell viability assay.

ECC10 = assay: cells; format: functional, cell-based, Homo sapiens; details: Homo sapiens, ECC10;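 note: growth inhibition of ECC10 cells, read out by a cell viability assay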
Description: SANGER: Inhibition of human ECC10 cell growth in a cell viability assay.

BALL-1 = assay: cells; format: functional, cell-based, Homo sapiens; details: Homo sapiens, BALL-1;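 note: growth inhibition of BALL-1 cells, read out with a cell viability assay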
Description: SANGER: Inhibition of human BALL-1 cell growth in a cell viability assay.

NCI-H2291 = assay: cells; format: functional, cell-based, Homo sapiens; details: Homo sapiens, NCI-H2291
Description: SANGER: Inhibition of human NCI-H2291 cell growth in a cell viability assay.

SW1990 = assay: cells; format: functional, cell-based, Homo sapiens; details: Homo sapiens, SW1990
Description: SANGER: Inhibition of human SW1990 cell growth in a cell viability assay.

LU-135 = assay: cells; format: functional, cell-based, Homo sapiens; details: Homo sapiens, LU-135
Description: SANGER: Inhibition of human LU-135 cell growth in a cell viability assay.

SW900 = assay: cells; format: functional, cell-based, Homo sapiens; details: Homo sapiens, SW900;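 note: IC50 is the concentration that inhibits SW900 cell growth, measured by a cell viability assay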
Description: SANGER: Inhibition of human SW900 cell growth in a cell viability assay.

H-EMC-SS = assay: cells; format: functional, cell-based, Homo sapiens; details: Homo sapiens, H-EMC-SS
Description: SANGER: Inhibition of human H-EMC-SS cell growth in a cell viability assay.

SMILES | IC50 (MRK-nu-1) [nM] | IC50 (NCI-H128) [nM] | IC50 (CHP-126) [nM] | IC50 (EB2) [nM] | IC50 (BC1 cell line) [nM] | IC50 (NCI-H322M) [nM] | IC50 (KARPAS-422) [nM] | IC50 (EB-3) [nM] | IC50 (SKM-1) [nM] | IC50 (769-P) [nM] | IC50 (P12-Ichikawa) [nM] | IC50 (FaDu) [nM] | IC50 (NBsusSR) [nM] | IC50 (CWR22R) [nM] | IC50 (SK-N-AS) [nM] | IC50 (HCT-116) [nM] | IC50 (SN12C) [nM] | IC50 (TI-73) [nM] | IC50 (BFTC-909) [nM] | IC50 (MDA-MB-157) [nM] | other results
C#Cc1cccc(Nc2ncnc3cc(OCCOC)c(OCCOC)cc23)c1 [ERLOTINIB] | > 2000 | > 2000 | > 2000 | > 2000 | > 2000 | > 2000 | > 2000 | > 2000 | > 2000 |  |  |  |  |  |  |  |  |  |  |  | IC50 (EHEB): > 2000 nM
COc1cc2ncn(-c3cc(OCc4ccccc4S(C)(=O)=O)c(C#N)s3)c2cc1OC [GSK-319347A] | > 5000 | > 5000 | > 5000 | > 5000 | > 5000 | > 5000 | > 5000 | > 5000 | > 5000 |  |  |  |  |  |  |  |  |  |  |  | IC50 (CAL-148): > 5000 nM; IC50 (COR-L279): > 5000 nM; IC50 (TALL-1): > 5000 nM
CC1(C)CNc2cc(NC(=O)c3cccnc3NCc3ccncc3)ccc21 [MOTESANIB] |  |  |  |  |  |  |  |  |  | > 2000 | > 2000 | > 2000 | > 2000 | > 2000 | > 2000 | > 2000 | > 2000 | > 2000 | > 2000 | > 2000 | IC50 (T47D): > 2000 nM; IC50 (HMV-2 cell line): > 2000 nM; IC50 (COR-L105): > 2000 nM; IC50 (HSC-2): > 2000 nM; IC50 (8505C): > 2000 nM; IC50 (NCI-H630): > 2000 nM; IC50 (ECC10): > 2000 nM; IC50 (BALL-1): > 2000 nM; IC50 (NCI-H2291): > 2000 nM; IC50 (SW1990): > 2000 nM; IC50 (LU-135): > 2000 nM; IC50 (SW900): > 2000 nM; IC50 (H-EMC-SS): > 2000 nM
CCN(CC)CCCCNc1ncc2cc(-c3cc(OC)cc(OC)c3)c(NC(=O)NC(C)(C)C)nc2n1 [PD-173074] |  |  |  |  |  |  |  |  |  | > 2000 | > 2000 | > 2000 | > 2000 | > 2000 | > 2000 | > 2000 | > 2000 | > 2000 | > 2000 | > 2000 | IC50 (T47D): > 2000 nM; IC50 (HMV-2 cell line): > 2000 nM; IC50 (COR-L105): > 2000 nM; IC50 (HSC-2): > 2000 nM; IC50 (8505C): > 2000 nM; IC50 (NCI-H630): > 2000 nM; IC50 (ECC10): 339 nM; IC50 (BALL-1): > 2000 nM; IC50 (NCI-H2291): > 2000 nM; IC50 (SW1990): > 2000 nM; IC50 (LU-135): > 2000 nM; IC50 (SW900): > 2000 nM; IC50 (H-EMC-SS): 347 nM
CC[C@H](CO)Nc1nc(NCc2ccccc2)c2ncn(C(C)C)c2n1 [SELICICLIB] | 7130 | > 16000 | > 16000 | > 16000 | > 16000 | > 16000 | 9960 | > 16000 | > 16000 |  |  |  |  |  |  |  |  |  |  |  | IC50 (CAL-148): > 16000 nM; IC50 (COR-L279): 12300 nM; IC50 (EHEB): > 16000 nM; IC50 (TALL-1): > 16000 nM
Cn1cnc2c(F)c(Nc3ccc(Br)cc3Cl)c(C(=O)NOCCO)cc21 [SELUMETINIB] |  |  |  |  |  |  |  |  |  | 3740 | 1160 | > 4000 | > 4000 | > 4000 | 92.8 | 1060 | 3960 | > 4000 | > 4000 | > 4000 | IC50 (T47D): > 4000 nM; IC50 (COR-L105): 3130 nM; IC50 (HSC-2): > 4000 nM; IC50 (8505C): > 4000 nM; IC50 (NCI-H630): > 4000 nM; IC50 (ECC10): > 4000 nM; IC50 (BALL-1): > 4000 nM; IC50 (NCI-H2291): 762 nM; IC50 (SW1990): > 4000 nM; IC50 (LU-135): > 4000 nM; IC50 (H-EMC-SS): 291 nM
